This passage reports IC50 results from patent publication US6825192B1, “Heterodiazinone derivatives” (Eisai Co., Ltd., priority 1999, dated 2004).

SMILES strings stand for the structures. Counter-ions that a name gives are not always drawn.

This test has as its system AMPA receptor. In words: Inhibitory action on AMPA-inducing inflow of calcium into nerve cells (Fura2-AM). It is filed as cell-based. The following applies: rat cerebral cortex nerve cells on astrocytes, 1 μM MK-801, stimulated by 2 μM AMPA, fluorescence 340/380 nm. The method, then:
The cerebral cortex was excised from the brain of a rat on day 18 after birth and treated with trypsin and DNase, whereby the cells were dispersed. The cells were allowed to float on DMEM containing 10% serum, inoculated into a culture bottle, and their astrocytes were grown. The astrocytes were re-dispersed with trypsin and inoculated onto each well on a 96-well plate. After it was confirmed that the bottom of each well was completely covered with the astrocytes after culture for 1 week, cerebral cortex nerve cells dispersed in the same manner as above were inoculated thereon. After 24 hours, the medium was exchanged with fresh one, and after culture for further 1 week, the medium was exchanged with a medium containing 1 μM MK-801.
The inflow of calcium into the cells was measured using Fura2-AM that is a calcium-sensitive fluorescent pigment. By treating the cells with a Fura2-AM-containing medium for 1 hour, Fura2-AM was incorporated into the cells, and the medium was exchanged with a Tyrode solution containing 1 μM MK-801. After a test compound was added, the cells were stimulated by 2 μM AMPA. The change in the amount of calcium flowing into the cells was measured as a change in the fluorescence intensity at wavelengths of 340/380 nm. The effect of a test compound was evaluated where the reaction caused by AMPA added to the Tyrode solution free of the test compound was used as the control.
For `O=C1COC(c2ccccc2)=NN1c1ccccc1O` [Example 50, 2-Phenyl-4-(2-hydroxyphenyl)-4H-1,3,4-oxadiazine-5(6H)-one], the IC50 was determined as 27.9 µM. To `CN(C)CCCOc1ccccc1C1=NN(c2ccccc2)C(=O)CO1` [Example 62, 2-[2-(3-Dimethylaminopropoxy)phenyl]-4-phenyl-4H-1,3,4-oxadiazine-5(6H)-one hydrochloride] belongs 25.1 µM. The value for `O=C1COC(c2ccccc2OCCN2CCOCC2)=NN1c1ccccc1F` [Example 67, 2-{2-[2-(4-Morpholinyl)ethoxy]phenyl}-4-(2-fluorophenyl)-4H-1,3,4-oxadiazine-5(6H)-one hydrochloride] was 6.62 µM; that for `O=C1COC(c2ccccc2OCc2cccnc2)=NN1c1ccccc1` [Example 58, 2-[2-(3-Pyridyl)methoxyphenyl]-4-phenyl-4H-1,3,4-oxadiazine-5(6H)-one hydrochloride] was 14.3 µM; that for `N#Cc1ccccc1N1N=C(c2ccccn2)OCC1=O` [Example 106, 2-(2-Pyridyl)-4-(2-cyanophenyl)-4H-1,3,4-oxadiazine-5(6H)-one] was 7.3 µM. On to `COc1ccccc1N1N=C(c2ccccn2)OCC1=O` [Example 35, 2-(2-Pyridyl)-4-(2-methoxyphenyl)-4H-1,3,4-oxadiazine-5(6H)-one], for which the IC50 is 42.7 µM. To `O=C1COC(c2ccccc2[N+](=O)[O-])=NN1c1ccccc1` [Example 20, 2-(2-Nitrophenyl)-4-phenyl-4H-1,3,4-oxadiazine-5(6H)-one] belongs 28.2 µM; to `CN(C)c1cccc(C2=NN(c3ccccc3)C(=O)CO2)c1` [Example 90, 2-(3-Dimethylaminophenyl)-4-phenyl-4H-1,3,4-oxadiazine-5(6H)-one], 31.4 µM; to `O=C1COC(c2cccs2)=NN1c1ccccc1` [Example 31, 2-(2-Thienyl)-4-phenyl-4H-1,3,4-oxadiazine-5(6H)-one], 8.3 µM. To `CN(C)c1ccccc1C1=NN(c2ccccc2)C(=O)CO1` [Example 91, 2-(2-Dimethylaminophenyl)-4-phenyl-4H-1,3,4-oxadiazine-5(6H)-one] belongs 19.1 µM; to `O=C1COC(c2ccccc2)=NN1C1CCN(Cc2ccccc2)CC1` [Example 86, 2-Phenyl-4-(1-benzyl-4-piperidyl)-4H-1,3,4-oxadiazine-5(6H)-one hydrochloride], 16.9 µM; to `CC(c1cccnc1)N1N=C(c2ccccc2)OCC1=O` (stereo not shown) [Example 88, 2-Phenyl-4-[1-(3-pyridyl)ethyl]-4H-1,3,4-oxadiazine-5(6H)-one oxalate], 52.3 µM.

In the case of `O=C1COC(c2ccccc2)=NN1C1CCOCC1` [Example 80, 2-Phenyl-4-(tetrahydro-4H-pyran-4-yl)-4H-1,3,4-oxadiazine-5(6H)-one], the IC50 was 62 µM. To `O=C1COC(c2ccccc2O)=NN1c1ccccc1` [Example 49, 2-(2-Hydroxyphenyl)-4-phenyl-4H-1,3,4-oxadiazine-5(6H)-one] belongs 2.7 µM. With `CC1(C)OC(c2ccccc2)=NN(c2ccccc2)C1=O` [Example 107, 2,4-Diphenyl-6,6-dimethyl-4H-1,3,4-oxadiazine-5-one], the IC50 was determined as 6.4 µM. The value for `O=C1COC(/C=C/c2ccccc2)=NN1c1ccccc1` [Example 15, 2-Styryl-4-phenyl-4H-1,3,4-oxadiazine-5(6H)-one] was 27.5 µM; that for `O=C1COC(/C=C/c2cccnc2)=NN1c1ccccc1` [Example 16, 2-[2-(3-Pyridyl)vinyl]-4-phenyl-4H-1,3,4-oxadiazine-5(6H)-one] was 24.9 µM; that for `O=C1COC(c2ccccc2O)=NN1c1ccc(F)cc1` [Example 52, 2-(2-Hydroxyphenyl)-4-(4-fluorophenyl)-4H-1,3,4-oxadiazine-5(6H)-one] was 1.52 µM.

Turning to `O=C1COC(c2ccccc2)=NN1c1cccnc1` [Example 39, 2-Phenyl-4-(3-pyridyl)-4H-1,3,4-oxadiazine-5(6H)-one hydrochloride], the IC50 was 51.4 µM.
